Experimental data from patent US20130196937A1, “AGE PRODUCTION INHIBITOR” (ORYZA OIL & FAT CHEMICAL CO., LTD., priority 2010, published 2013).
Like-named read-outs stand apart in the source and are kept apart here. Marks after values point to notes of the source that are not given here.

What was measured:
[1] = test system: AGE production; assay: Test 1: AGE production inhibition (D-glucose + bovine serum albumin, fluorescence); type: biochemical
Procedure: Put the sample solution ([…]) of the concentration of cherry-blossom extract (Example 1) and cherry-leaf extract (Example 2), as shown in the chart, below, into a phosphate buffer solution (pH: […]) containing D-glucose (10%) and into bovine serum albumin (fraction 5.1%) and leave it out at a temperature of 60 degrees centigrade for two days. Dilute the reaction solution with distilled water until the intensity of fluorescent light reaches about 500, thus determining its intensity (measurement wavelength: […]). Also, the extract is to be diluted with distilled water, and the substance, after being dissolved in DMSO (dimethyl sulphoxide), is to be diluted with a phosphate buffer solution until DMSO concentration is of 1%. Each value in Chart 1 indicates an average value with standard error of the three examples. Asterisks (*, **) mean a significant difference (i.e. *: p<0.05; **: p<0.01) between the processed samples and the unprocessed samples as determined by Dunnett's Multiple Comparison Test.

[2] = test system: normal diploid fibroblast (PDL22-32 cells); assay: Test 2-2: fibroblast apoptosis caused by CML-collagen (Caspase Assay), extracts and substances; type: cell-based, human
Procedure: 50 mg of 1 mM HCL was added to 25 mL of bovine skin-derived collagen and dissolved for two hours incubation at the temperature of 37 degrees centigrade, and was shaken as needed. Then, PBS (pH7.4 25 mL) was added to sodium cyanoborohydride (1.42 g) and to glyoxylic acid (0.9 g) and mixed so as to react at the temperature of 37 degrees centigrade for 24 hours. The reaction solution was then put into a dialysis cell of 10,000 molecular mass for a dialysis-with-water test to be conducted for one day and for a dialysis-with-PBS to be conducted for six days. CML-collagen (21 mg) was obtained by freeze-drying the dialysate.
The fibroblast (7×10^4 cells) was suspended in the D-MEM medium containing FCS (0.5%), penicillin (100 units/mL) and streptomycin ([…]) to be seeded within 96-well plates ([…]). After 24 hours of culture, the dissolved CML-collagen solution (2 mg·mL) and the sample solution ([…]) were added to the medium and cultured for 24 hours. Collagen, instead of CML-collagen, was added to Normal group.
The rate of cell survival was measured by MIT Assay. The result is shown in Chart 2. At the same time, a microscopic test was done, of which the result of formazan formation of fibroblast (×100) is shown in FIG. 2. Apoptosis was identified by measuring active caspase-3/7 by the fluorescence method, of which the result is shown in Chart 3, below. Each value of Charts 2 and 3 is indicated by the average value with standard error of the six examples. Asterisks (*, **) mean a significant difference (i.e. *: p<0.05; **: p<0.01) between the unprocessed samples and Dunnett's multiple comparison test, and f represents p<0.05 by Fisher's PLSD Test.
Here, in Test 2-2, respecting the cherry-blossom extract (Example 1), and the cherry-leaf extract (Example 2) and the seven substances contained in the cherry-blossom extract (Example 1): 1-O-(E)-Caffeoyl-β-D-glucopyranoside, 1-O-(E)-Coumaroyl-β-D-Glucopyranosideand, 1-O-(E)-Cinnamoyl-β-D-glucopyranoside, Kaempferol 3-O-3-D-glucopyranoside, Quercetin 3-O-β-D-glucopyranoside, Kaempferol 3-O-(6″-malony)-β-D-glucopyranoside and Quercetin 3-O-(6″-malony)-β-D-glucopyranoside (Examples 3 to 9), the activity against fibroblast apoptosis, caused by CML-collagen, was identified in the same way as in Test 2-1.
Also, in Test 2-2, PDL22-32 cells were used as the normal diploid fibroblast. As a target for comparison, aminoguanidine hydrochloride which is a medicine for the glycation inhibitor was examined in the same way. Each value of Chart 4 indicates an average value with standard error of the five examples. Asterisks (*, **) mean a significant difference (i.e. *: p<0.05; **: p<0.01) between processed samples and unprocessed samples with CML-collagen, determined by Dunnett's Multiple Comparison Test.

[3] = test system: human diploid fibroblast; assay: Test 4: AGE production within the fibroblast processed with glyoxal (Western Blotting); type: cell-based; details: 1 and 10 mg/mL, 5 days
Procedure: Test 4 examined the activity of the cherry blossom-extract (Example 1) and of the 1-O-(E)-Caffeoyl-β-D-glucopyranoside (Example 3) against the production of AGE (carbon methyl lysine protein) within the fibroblast (human diploid fibroblast) which was processed with glyoxal.
Human diploid fibroblast (passage number 30) was suspended in a D-MEM complete culture media, and 20 mL each was seeded within a cell culture dish of 14 cm in diameter. After 48 hours of culture, samples of various concentrations and of […] of glyoxal were added to 80%-confluent cells and cultured for 5 days. After that, each sample was collected and crushed. Then, protein […] was examined by the Western Blotting method using an anti-AGE antibody to detect AGE. […] In FIG. 6, CaGlu means 1-O-(E)-Caffeoyl-β-D-glucopyranoside (Example 3).

[4] = test system: NB1 RGB fibroblast; assay: Test 3: collagen grating formation of fibroblast glycosylated by glyoxal; type: cell-based, human
Procedure: When fibroblast is cultured in the presence of collagen solution, collagen grating formation can be identified. In a similar test, when adding fibroblast that has been glycosylated by the intermediate product of glycation (glyoxal), it is known that the collagen grating formation is inhibited.
The infant-derived NB1 RGB (passage number 22) was suspended in the D-MEM complete media (1.86×10^4 cells/mL). 15 mL each of it was seeded within each cell-culture dish of 14 cm in diameter. After 24 hours, each sample and glyoxal were added until the molecular mass of each dish became […] and incubate the dishes for five days.
Bovine skin-derived collagen (25 mg) was dissolved in 0.1% acetic acid (8.3 mL). Then, a 10-times concentration of Hanks solution ([…]) was added. Then, 0.1% acetic acid (3.5 mL) was added. 1M NaOH was added to neutralize the solution, which was sterilized by filteration to obtain the collagen solution.
The mixed solution of collected fibroblast (5.4×10^4 cell) was suspended in FCS ([…]), and collagen ([…]) was seeded within a 24-well cell-culture plate and allowed to culture for 24 hours and 48 hours. Each culture was observed through a microscope and by the naked eye. For the purpose of comparison, aminoguanidin hydrochloride which is an anti-glycation agent was also examined in the same way.

SMILES	IC50 of AGE production inhibition [1] [µg/mL]	Inhibition Ratio (%) of AGE production ([1]; 1 μg/mL)	Inhibition Ratio (%) of AGE production ([1]; 3 μg/mL)	Inhibition Ratio (%) of AGE production ([1]; 10 μg/mL)	Inhibition Ratio (%) of AGE production ([1]; 30 μg/mL)	Inhibition Ratio (%) of AGE production ([1]; 100 μg/mL)	Inhibition Ratio (%) of AGE production ([1]; 300 μg/mL)	Inhibition Ratio (%) of AGE production ([1]; 300 μg/mL, listed as Example 3) [%]	Inhibition Ratio (%) of fibroblast apoptosis (Caspase Assay) ([2]; 1 μg/mL)	Inhibition Ratio (%) of fibroblast apoptosis (Caspase Assay) ([2]; 3 μg/mL)	Inhibition Ratio (%) of fibroblast apoptosis (Caspase Assay) ([2]; 10 μg/mL)	production of AGE within the fibroblast (anti-AGE antibody, FIG. 6) [3]	AGE inhibitory activity in words, related compound with less hydroxyl compared with Example 3 [1]	Inhibition Ratio (%) of fibroblast apoptosis (Caspase Assay) ([2]; 100 μg/mL)	fibroblast shape, microscopic image after 24 hours of culture (FIG. 4) [4]	amount of collagen grating formation (naked eye, FIG. 3), compared to the control group ([4]; 100 mg/mL, with glyoxal)	inhibitory activity against apoptosis caused by CML-collagen, result in words [2]	inhibitory activity against apoptosis caused by CML-collagen, result in words ([2]; listed as Example 6)
O=C(/C=C/c1ccc(O)c(O)c1)O[C@@H]1OC(CO)[C@@H](O)C(O)C1O (stereo partly drawn) [1-O-(E)-Caffeoyl-β-D-glucopyranoside]	>300	−3.3 ± 0.1%	0.9 ± 0.1%	10.7 ± 0.1** %	19.5 ± 0.3** %	25.0 ± 0.3** %	30.0 ± 0.4** %	30	26.2 ± 0.5* %	37.6 ± 1.2%	72.2 ± 2.7* %	inhibited the production of AGE	–	–	–	–	–	–
O=C(/C=C/c1ccccc1)O[C@@H]1OC(CO)[C@@H](O)C(O)C1O (stereo partly drawn) [1-O-(E)-Cinnamoyl-β-D-glucopyranoside]	>300	−8.4 ± 0.1%	−10.4 ± 0.1%	−10.9 ± 0.4* %	−7.8 ± 0.1%	5.7 ± 0.1%	23.3 ± 0.4** %	–	−11.8 ± 0.3%	19.7 ± 0.9%	48.6 ± 2.9%	–	reduced	–	–	–	–	–
O=C(/C=C/c1ccc(O)cc1)O[C@@H]1OC(CO)[C@@H](O)C(O)C1O (stereo partly drawn) [1-O-(E)-Coumaroyl-β-D-glucopyranoside]	>300	−3.2 ± 0.1%	−8.2 ± 0.1** %	−8.6 ± 0.1** %	−8.9 ± 0.1** %	−3.7 ± 0.1** %	11.6 ± 0.1** %	–	17.2 ± 0.5%	7.1 ± 0.2%	51.1 ± 1.9%	–	reduced	–	–	–	–	–
Cl.N=C(N)NN [Aminoguanidine Hydrochloride, aminoguanidine hydrochloride, reference compound]	138	–	–	1.4 ± 0.1%	18.1 ± 1.1%	42.6 ± 1.7** %	67.7 ± 1.6** %	–	–	–	–	–	–	104.8 ± 34* %	spherically shaped	showed no increase in the amount of grating formation	–	–
O=c1c(O[C@@H]2O[C@H](CO)[C@@H](O)[C@H](O)[C@H]2O)c(-c2ccc(O)c(O)c2)oc2cc(O)cc(O)c12 [Quercetin 3-O-β-D-glucopyranoside]	30	8.5 ± 0.1** %	6.5 ± 0.1* %	27.6 ± 0.5** %	49.8 ± 0.7** %	74.2 ± 1.1** %	100.8 ± 0.6** %	–	44.2 ± 1.5* %	39.0 ± 1.1* %	121.5 ± 5.4** %	–	–	–	–	–	strongest inhibitory activity	–

Now from value to compound, other results behind:

IC50 of AGE production inhibition [1] [µg/mL]	SMILES	Inhibition Ratio (%) of AGE production ([1]; 1 μg/mL)	Inhibition Ratio (%) of AGE production ([1]; 3 μg/mL)	Inhibition Ratio (%) of AGE production ([1]; 10 μg/mL)	Inhibition Ratio (%) of AGE production ([1]; 30 μg/mL)	Inhibition Ratio (%) of AGE production ([1]; 100 μg/mL)	Inhibition Ratio (%) of AGE production ([1]; 300 μg/mL)	Inhibition Ratio (%) of AGE production ([1]; 300 μg/mL, listed as Example 3) [%]	Inhibition Ratio (%) of fibroblast apoptosis (Caspase Assay) ([2]; 1 μg/mL)	Inhibition Ratio (%) of fibroblast apoptosis (Caspase Assay) ([2]; 3 μg/mL)	Inhibition Ratio (%) of fibroblast apoptosis (Caspase Assay) ([2]; 10 μg/mL)	production of AGE within the fibroblast (anti-AGE antibody, FIG. 6) [3]	AGE inhibitory activity in words, related compound with less hydroxyl compared with Example 3 [1]	Inhibition Ratio (%) of fibroblast apoptosis (Caspase Assay) ([2]; 100 μg/mL)	fibroblast shape, microscopic image after 24 hours of culture (FIG. 4) [4]	amount of collagen grating formation (naked eye, FIG. 3), compared to the control group ([4]; 100 mg/mL, with glyoxal)	inhibitory activity against apoptosis caused by CML-collagen, result in words [2]	inhibitory activity against apoptosis caused by CML-collagen, result in words ([2]; listed as Example 6)
78	O=C(O)CC(=O)OCC1O[C@@H](Oc2c(-c3ccc(O)cc3)oc3cc(O)cc(O)c3c2=O)C(O)C(O)[C@@H]1O (stereo partly drawn) [Kaempferol 3-O-(6″-malony)-β-D-glucopyranoside]	−5.0 ± 0.1%	−8.5 ± 0.1%	0.2 ± 0.1%	20.5 ± 0.3** %	50.8 ± 0.4** %	91.7 ± 1.7** %	–	−18.9 ± 0.6%	−17.3 ± 0.6%	10.5 ± 0.5%	–	–	–	–	–	relatively weak activity	–
102	O=c1c(O[C@@H]2O[C@H](CO)[C@@H](O)[C@H](O)[C@H]2O)c(-c2ccc(O)cc2)oc2cc(O)cc(O)c12 [Kaempferol 3-O-β-D-glucopyranoside]	−8.4 ± 0.1** %	−9.1 ± 0.2** %	−2.0 ± 0.1%	19.4 ± 0.1** %	45.0 ± 0.5** %	80.3 ± 0.7** %	–	−0.7 ± 0.1%	27.9 ± 1.1%	100.7 ± 4.2%	–	–	–	–	–	especially strong inhibitory activity	strong inhibitory activity
36	O=C(O)CC(=O)OCC1O[C@@H](Oc2c(-c3ccc(O)c(O)c3)oc3cc(O)cc(O)c3c2=O)C(O)C(O)[C@@H]1O (stereo partly drawn) [Quercetin 3-O-(6″-malony)-β-D-glucopyranoside]	−10.4 ± 0.9%	1.9 ± 0.1%	20.4 ± 0.3** %	43.7 ± 0.7** %	74.6 ± 0.7** %	103.9 ± 3.6** %	–	21.8 ± 0.7%	36.6 ± 1.4%	98.4 ± 4.4* %	–	–	–	–	–	strong inhibitory activity	–
